Reference: patent US8143263B2, “Therapeutic agents” (Astrazeneca AB, priority 2008, dated 2012)

Molecular target: T1, recombinant human pancreatic GLK (Homo sapiens, UniProt P35557)
T1 sequence (P35557 1-465): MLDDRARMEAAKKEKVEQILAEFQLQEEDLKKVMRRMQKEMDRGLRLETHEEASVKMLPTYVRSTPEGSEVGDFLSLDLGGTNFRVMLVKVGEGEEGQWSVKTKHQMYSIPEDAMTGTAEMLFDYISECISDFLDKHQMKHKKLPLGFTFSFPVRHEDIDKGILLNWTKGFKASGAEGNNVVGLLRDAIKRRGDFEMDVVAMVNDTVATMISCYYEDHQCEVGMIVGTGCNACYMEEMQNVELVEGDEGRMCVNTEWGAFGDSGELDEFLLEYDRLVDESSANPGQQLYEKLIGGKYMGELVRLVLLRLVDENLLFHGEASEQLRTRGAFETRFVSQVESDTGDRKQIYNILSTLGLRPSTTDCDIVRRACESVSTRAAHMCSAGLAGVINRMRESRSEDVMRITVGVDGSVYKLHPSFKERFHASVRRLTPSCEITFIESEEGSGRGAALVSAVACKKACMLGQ
Assay: biochemical

SMILES | EC50
CC(C)OC[C@H](Oc1ncnc2c1cnn2-c1ncccc1Cl)C(=O)Nc1ccc(S(C)(=O)=O)cn1 [Example 177, (2S)-2-(1-(3-chloropyridin-2-yl)-1H-pyrazolo[3,4-d]pyrimidin-4-yloxy)-3-isopropoxy-N-(5-(methylsulfonyl)pyridin-2-yl)propanamide] | 1500 nM
CCOC[C@H](Oc1ncnc2c1cnn2-c1ncccc1Cl)C(=O)Nc1ccc(C#N)cn1 [Example 127c, (2S)-2-[1-(3-chloro-2-pyridyl)pyrazolo[4,5-e]pyrimidin-4-yl]oxy-N-(5-cyano-2-pyridyl)-3-ethoxy-propanamide] | 670 nM
O=C(Nc1ccncn1)[C@H](CCO)Oc1ncnc2c1cnn2-c1ncccc1Cl [Example 143f, (2S)-2-[1-(3-chloro-2-pyridyl)pyrazolo[4,5-e]pyrimidin-4-yl]oxy-4-hydroxy-N-pyrimidin-4-yl-butanamide] | 980 nM
Cc1ccc(NC(=O)[C@@H](COC(C)C)Oc2ncnc3c2cnn3-c2ccccc2Cl)nc1 [Example 99, (2R)-2-(1-(2-chlorophenyl)-1H-pyrazolo[3,4-d]pyrimidin-4-yloxy)-3-isopropoxy-N-(5-methylpyridin-2-yl)propanamide] | 9300 nM
Cc1ccc(NC(=O)[C@H](COCCO)Oc2ncnc3c2cnn3-c2ccccc2Cl)nc1 [Example 194, (2S)-2-(1-(2-chlorophenyl)-1H-pyrazolo[3,4-d]pyrimidin-4-yloxy)-3-(2-hydroxyethoxy)-N-(5-methylpyridin-2-yl)propanamide] | 580 nM
Cc1cnc(NC(=O)[C@H](COC(C)C)Oc2ncnc3c2cnn3-c2ccccc2Cl)s1 [Example 111a, (2S)-2-[1-(2-chlorophenyl)pyrazolo[4,5-e]pyrimidin-4-yl]oxy-3-isopropoxy-N-(5-methylthiazol-2-yl)propanamide] | 210 nM
Cc1ccc(C#N)cc1-n1ncc2c(O[C@@H](COCCO)C(=O)Nc3ccc(Cl)cn3)ncnc21 [Example 185, (2S)—N-(5-chloropyridin-2-yl)-2-(1-(5-cyano-2-methylphenyl)-1H-pyrazolo[3,4-d]pyrimidin-4-yloxy)-3-(2-hydroxyethoxy)propanamide] | 3700 nM
CC(C)OC[C@H](Oc1ncnc2c1cnn2-c1ncccc1Cl)C(=O)Nc1ccc(C#N)cn1 [Example 127j, (2S)-2-[1-(3-chloro-2-pyridyl)pyrazolo[4,5-e]pyrimidin-4-yl]oxy-N-(5-cyano-2-pyridyl)-3-isopropoxy-propanamide] | 580 nM
Cc1ccc(NC(=O)[C@H](COC(C)C)Oc2ncnc3c2cnn3-c2ncccc2Cl)nc1 [Example 91, (2S)-2-(1-(3-chloropyridin-2-yl)-1H-pyrazolo[3,4-d]pyrimidin-4-yloxy)-3-isopropoxy-N-(5-methylpyridin-2-yl)propanamide] | 160 nM
N#Cc1cccc(Cl)c1-n1ncc2c(O[C@@H](CN3CCC3)C(=O)Nc3ccccn3)ncnc21 [Example 221, (2S)-3-(azetidin-1-yl)-2-[1-(2-chloro-6-cyano-phenyl)pyrazolo[3,4-d]pyrimidin-4-yl]oxy-N-(2-pyridyl)propanamide] | 310 nM
Cc1ccccc1-n1nnc2c(O[C@@H](COCCO)C(=O)Nc3ccc(Cl)cn3)ncnc21 [Example 198, (2S)—N-(5-chloropyridin-2-yl)-3-(2-hydroxyethoxy)-2-(3-o-tolyl-3H-[1,2,3]triazolo[4,5-d]pyrimidin-7-yloxy)propanamide] | 2200 nM
COC[C@H](Oc1ncnc2c1cnn2-c1ccccc1OC)C(=O)Nc1ccc(C)cn1 [Example 6, (S)-3-methoxy-2-{[1-(2-methoxyphenyl)-1H-pyrazolo[3,4-d]pyrimidin-4-yl]oxy}-N-(5-methylpyridin-2-yl)propanamide] | 680 nM
O=C(Nc1ccccn1)[C@H](CN1CC(CO)C1)Oc1ncnc2c1cnn2-c1ccccc1Cl [Example 228, (2S)-2-[1-(2-chlorophenyl)pyrazolo[3,4-d]pyrimidin-4-yl]oxy-3-[3-(hydroxymethyl)azetidin-1-yl]-N-(2-pyridyl)propanamide] | 460 nM
C[C@@H](CO)OC[C@H](Oc1ncnc2c1cnn2-c1ncccc1Cl)C(=O)Nc1ccc(F)cn1 [Example 192, (2S)-2-(1-(3-chloropyridin-2-yl)-1H-pyrazolo[3,4-d]pyrimidin-4-yloxy)-N-(5-fluoropyridin-2-yl)-3-((S)-1-hydroxypropan-2-yloxy)propanamide] | 360 nM
O=C(Nc1ccccn1)[C@H](COCCO)Oc1ncnc2c1cnn2-c1ccccc1C(F)(F)F [Example 199, (2S)-3-(2-hydroxyethoxy)-N-(pyridin-2-yl)-2-(1-(2-(trifluoromethyl)phenyl)-1H-pyrazolo[3,4-d]pyrimidin-4-yloxy)propanamide] | 1100 nM
CCOC[C@H](Oc1ncnc2c1cnn2-c1ncccc1Cl)C(=O)Nc1ccncn1 [Example 127f, (2S)-2-[1-(3-chloro-2-pyridyl)pyrazolo[4,5-e]pyrimidin-4-yl]oxy-3-ethoxy-N-pyrimidin-4-yl-propanamide] | 1100 nM
CC(C)OCC(Oc1ncnc2c1cnn2-c1ccccc1Cl)C(=O)Nc1ccc(F)cn1 (stereo not drawn) [Example 112, 2-[1-(2-chlorophenyl)pyrazolo[4,5-e]pyrimidin-4-yl]oxy-N-(5-fluoro-2-pyridyl)-3-isopropoxy-propanamide] | 260 nM
CCOC[C@H](Oc1ncnc2c1cnn2-c1cccc(Cl)c1Cl)C(=O)Nc1ccc(C#N)cn1 [Example 214, (2S)—N-(5-cyanopyridin-2-yl)-2-(1-(2,3-dichlorophenyl)-1H-pyrazolo[3,4-d]pyrimidin-4-yloxy)-3-ethoxypropanamide] | 320 nM
CC(C)OCC(Oc1ncnc2c1cnn2-c1ccccc1Cl)C(=O)Nc1ccc(Cl)cn1 (stereo not drawn) [Example 115, 2-[1-(2-chlorophenyl)pyrazolo[4,5-e]pyrimidin-4-yl]oxy-N-(5-chloro-2-pyridyl)-3-isopropoxy-propanamide] | 110 nM
Cc1ccc(NC(=O)[C@H](COC[C@H](C)O)Oc2ncnc3c2cnn3-c2ncccc2Cl)nc1 [Example 204, (2S)-2-(1-(3-chloropyridin-2-yl)-1H-pyrazolo[3,4-d]pyrimidin-4-yloxy)-3-((S)-2-hydroxypropoxy)-N-(5-methylpyridin-2-yl)propanamide] | 1300 nM
O=C(Nc1ccc(Cl)cn1)[C@H](CCCO)Oc1ncnc2c1cnn2-c1ncccc1Cl [Example 212, (2S)—N-(5-chloropyridin-2-yl)-2-(1-(3-chloropyridin-2-yl)-1H-pyrazolo[3,4-d]pyrimidin-4-yloxy)-5-hydroxypentanamide] | 490 nM
COCC(Oc1ncnc2c1cnn2C)C(=O)Nc1ccc(C)cn1 (stereo not drawn) [Example 8, 3-methoxy-2-[(1-methyl-1H-pyrazolo[3,4-d]pyrimidin-4-yl)oxy]-N-(5-methylpyridin-2-yl)propanamide] | ≥ 100000 nM
COC[C@H](Oc1ncnc2c1cnn2-c1ccccc1C#N)C(=O)Nc1ccc(C)cn1 [Example 97, (2S)-2-(1-(2-cyanophenyl)-1H-pyrazolo[3,4-d]pyrimidin-4-yloxy)-3-methoxy-N-(5-methylpyridin-2-yl)propanamide] | 1200 nM
Cc1ccc(NC(=O)[C@H](CCNS(C)(=O)=O)Oc2ncnc3c2cnn3-c2ccccc2Cl)nc1 [Example 164, (2S)-2-(1-(2-chlorophenyl)-1H-pyrazolo[3,4-d]pyrimidin-4-yloxy)-N-(5-methylpyridin-2-yl)-4-(methylsulfonamido)butanamide] | 930 nM
